In patent US4438044A, “Di-L-cysteine L-malate and process for the production thereof” (priority 1980, dated 1984):
Converted amounts (≈) assume the structure as drawn.

Columns and labels:
Solubility in water = assay type: physicochemical; settings: 10° C.
[1] = assay type: physicochemical
Procedure: The storage stability of the above crystalline product and L-cysteine hydrochloride anhydride is measured by keeping them at 40° C. The results are shown in the accompanying FIG. 3.

- solubility (Solubility in water): 222 mg/mL (≈ 1830 mM)
- stability in the crystalline form [1]: extremely stable
- storage stability [1]: excellent stability
Compound: N[C@@H](CS)C(=O)O [di-L-cysteine L-malate]
